Consider 10 compounds from ChEMBL document CHEMBL1140961, “Synthesis and biological activity of some new benzoxazoles” (2008).

Converted amounts (≈) assume the structure as drawn.

Holding throughout (type): functional
Experiment [1] deals with Candida albicans. Description: Antimicrobial activity against Candida albicans ATCC 10231 after 24 to 48 hrs after 24 hrs by disk diffusion method.
Experiment [2] relates to Candida albicans. Description: Antimicrobial activity against Candida albicans isolate after 24 to 48 hrs after 24 hrs by disk diffusion method. Background: In agar diffusion tests the substance spreads into inoculated agar from a disc or well.
For experiment [3], the system named is Staphylococcus aureus. Description: Antimicrobial activity against Staphylococcus aureus ATCC 25923 after 24 hrs by disk diffusion method.
Experiment [4] concerns Staphylococcus aureus. Description: Antimicrobial activity against Staphylococcus aureus isolate after 24 hrs by disk diffusion method.
In experiment [5] the test system is Bacillus subtilis. Description: Antimicrobial activity against Bacillus subtilis ATCC 6633 after 24 hrs by disk diffusion method.
Experiment [6] concerns Bacillus subtilis. Description: Antimicrobial activity against Bacillus subtilis isolate after 24 hrs by disk diffusion method.
In experiment [7] the test system is Escherichia coli. Description: Antimicrobial activity against Escherichia coli ATCC 25922 after 24 hrs by disk diffusion method.
In experiment [8] the test system is Escherichia coli. Description: Antimicrobial activity against Escherichia coli isolate after 24 hrs by disk diffusion method.
The test system of experiment [9] is Klebsiella pneumoniae. Description: Antimicrobial activity against Klebsiella pneumoniae RSHM 574 after 24 hrs by disk diffusion method.
Experiment [10] concerns Klebsiella pneumoniae. Description: Antimicrobial activity against Klebsiella pneumoniae after 24 hrs by disk diffusion method.
The subject of another experiment is Pseudomonas aeruginosa. Description: Antimicrobial activity against Pseudomonas aeruginosa ATCC […] after 24 hrs by disk diffusion method.

Consider `OC(Cn1cncn1)(Cn1cncn1)c1ccc(F)cc1F` [FLUCONAZOLE], for which the minimum inhibitory concentration (MIC) in the experiment with Candida albicans [1] amounted to 1 µg/mL (≈ 3.27 µM); in the experiment with Candida albicans [2], 64 µg/mL (≈ 209 µM).
As for `CCS(=O)(=O)c1ccc2oc(Cc3ccc(Br)cc3)nc2c1`, the MIC in the experiment with Staphylococcus aureus [3] (ATCC 25923, 24 h) was found to be 125 µg/mL (≈ 329 µM); against Staphylococcus aureus [4] it was 125 µg/mL (≈ 329 µM); against Bacillus subtilis [5] (ATCC 6633, 24 h), 62.5 µg/mL (≈ 164 µM); against Bacillus subtilis [6] it was 15.6 µg/mL (≈ 41.1 µM); against Escherichia coli [7] (ATCC 25922, 24 h), 62.5 µg/mL (≈ 164 µM); in the experiment on Escherichia coli [8], 125 µg/mL (≈ 329 µM). For the same compound, the MIC amounted to 62.5 µg/mL (≈ 164 µM) against Klebsiella pneumoniae [9]; 125 µg/mL (≈ 329 µM) in the experiment with Klebsiella pneumoniae [10]; 62.5 µg/mL (≈ 164 µM) against Pseudomonas aeruginosa (ATCC 25853, 24 h); 62.5 µg/mL (≈ 164 µM) with Candida albicans [1]; 62.5 µg/mL (≈ 164 µM) in the experiment with Candida albicans [2].
As for `CCS(=O)(=O)c1ccc2oc(Cc3ccc(Cl)cc3)nc2c1`, the MIC against Staphylococcus aureus [3] (ATCC 25923, 24 h) amounted to 125 µg/mL (≈ 372 µM); in the experiment with Staphylococcus aureus [4] it was 125 µg/mL (≈ 372 µM); in the experiment on Bacillus subtilis [5] (ATCC 6633, 24 h), 31.2 µg/mL (≈ 93.1 µM); against Bacillus subtilis [6] it was 15.6 µg/mL (≈ 46.5 µM); against Escherichia coli [7] (ATCC 25922, 24 h), 62.5 µg/mL (≈ 186 µM); against Escherichia coli [8], 125 µg/mL (≈ 372 µM). The MIC in the experiment on Klebsiella pneumoniae [9] came to 62.5 µg/mL (≈ 186 µM); against Klebsiella pneumoniae [10], 125 µg/mL (≈ 372 µM); in the experiment on Pseudomonas aeruginosa (ATCC 25853, 24 h), 62.5 µg/mL (≈ 186 µM); with Candida albicans [1] it was 31.2 µg/mL (≈ 93.1 µM); against Candida albicans [2] it was 62.5 µg/mL (≈ 186 µM).
With `CCS(=O)(=O)c1ccc2oc(-c3ccc(C)cc3)nc2c1`, the MIC came to 125 µg/mL (≈ 415 µM) against Staphylococcus aureus [3] (ATCC 25923, 24 h); 125 µg/mL (≈ 415 µM) against Staphylococcus aureus [4]; 31.2 µg/mL (≈ 104 µM) with Bacillus subtilis [5] (ATCC 6633, 24 h); 31.2 µg/mL (≈ 104 µM) with Bacillus subtilis [6]; 62.5 µg/mL (≈ 207 µM) against Escherichia coli [7] (ATCC 25922, 24 h); 62.5 µg/mL (≈ 207 µM) against Escherichia coli [8]. Also, the MIC against Klebsiella pneumoniae [9] was 62.5 µg/mL (≈ 207 µM); with Klebsiella pneumoniae [10] it was 31.2 µg/mL (≈ 104 µM); in the experiment on Pseudomonas aeruginosa (ATCC 25853, 24 h), 62.5 µg/mL (≈ 207 µM); with Candida albicans [1], 125 µg/mL (≈ 415 µM); in the experiment on Candida albicans [2] it was 31.2 µg/mL (≈ 104 µM).
Turning to `CCS(=O)(=O)c1ccc2oc(-c3cccc(C)c3C)nc2c1`, the MIC in the experiment with Staphylococcus aureus [3] (ATCC 25923, 24 h) worked out at 125 µg/mL (≈ 396 µM); in the experiment with Staphylococcus aureus [4], 125 µg/mL (≈ 396 µM); in the experiment on Bacillus subtilis [5] (ATCC 6633, 24 h) it was 15.6 µg/mL (≈ 49.5 µM); in the experiment with Bacillus subtilis [6] it was 31.2 µg/mL (≈ 99.1 µM); in the experiment with Escherichia coli [7] (ATCC 25922, 24 h) it was 62.5 µg/mL (≈ 198 µM); in the experiment with Escherichia coli [8] it was 250 µg/mL (≈ 793 µM). For the same compound, the MIC in the experiment with Klebsiella pneumoniae [9] was 31.2 µg/mL (≈ 99.1 µM); in the experiment on Klebsiella pneumoniae [10], 125 µg/mL (≈ 396 µM); against Pseudomonas aeruginosa (ATCC 25853, 24 h), 62.5 µg/mL (≈ 198 µM); against Candida albicans [1], 31.2 µg/mL (≈ 99.1 µM); against Candida albicans [2], 62.5 µg/mL (≈ 198 µM).
`CCS(=O)(=O)c1ccc2oc(Cc3ccc(F)cc3)nc2c1`: the MIC with Staphylococcus aureus [3] (ATCC 25923, 24 h) was determined as 125 µg/mL (≈ 391 µM); against Staphylococcus aureus [4], 125 µg/mL (≈ 391 µM); with Bacillus subtilis [5] (ATCC 6633, 24 h), 62.5 µg/mL (≈ 196 µM); with Bacillus subtilis [6], 31.2 µg/mL (≈ 97.9 µM); with Escherichia coli [7] (ATCC 25922, 24 h), 62.5 µg/mL (≈ 196 µM); in the experiment on Escherichia coli [8], 125 µg/mL (≈ 391 µM). Also, the MIC in the experiment with Klebsiella pneumoniae [9] was found to be 31.2 µg/mL (≈ 97.9 µM); against Klebsiella pneumoniae [10], 125 µg/mL (≈ 391 µM); against Pseudomonas aeruginosa (ATCC 25853, 24 h), 62.5 µg/mL (≈ 196 µM); with Candida albicans [1], 62.5 µg/mL (≈ 196 µM); against Candida albicans [2] it was 31.2 µg/mL (≈ 97.9 µM).
For the compound `CCS(=O)(=O)c1ccc2oc(-c3ccc(Br)cc3)nc2c1`, the minimal inhibitory concentration (MIC) against Staphylococcus aureus [3] (ATCC 25923, 24 h) worked out at 125 µg/mL (≈ 341 µM); against Staphylococcus aureus [4], 125 µg/mL (≈ 341 µM); in the experiment on Bacillus subtilis [5] (ATCC 6633, 24 h) it was 15.6 µg/mL (≈ 42.7 µM); in the experiment on Bacillus subtilis [6] it was 31.2 µg/mL (≈ 85.3 µM); in the experiment on Escherichia coli [7] (ATCC 25922, 24 h), 62.5 µg/mL (≈ 171 µM); in the experiment on Escherichia coli [8], 62.5 µg/mL (≈ 171 µM). The MIC came out at 62.5 µg/mL (≈ 171 µM) against Klebsiella pneumoniae [9]; 125 µg/mL (≈ 341 µM) in the experiment on Klebsiella pneumoniae [10]; 62.5 µg/mL (≈ 171 µM) against Pseudomonas aeruginosa (ATCC 25853, 24 h); 125 µg/mL (≈ 341 µM) in the experiment on Candida albicans [1]; 31.2 µg/mL (≈ 85.3 µM) in the experiment on Candida albicans [2].
On to GENTAMICIN SULFATE, for which the MIC against Staphylococcus aureus [3] amounted to 0.06 µg/mL; in the experiment on Staphylococcus aureus [4], 1020 µg/mL; against Bacillus subtilis [5] it was 1 µg/mL; in the experiment with Bacillus subtilis [6], 512 µg/mL; in the experiment with Escherichia coli [7] it was 0.5 µg/mL; in the experiment on Escherichia coli [8], 1 µg/mL. For the same compound, the minimum inhibitory concentration (MIC) in the experiment on Klebsiella pneumoniae [9] turned out to be 8 µg/mL; in the experiment on Klebsiella pneumoniae [10] it was 64 µg/mL; in the experiment with Pseudomonas aeruginosa, 2 µg/mL.
As to `CCS(=O)(=O)c1ccc2oc(-c3ccc([N+](=O)[O-])cc3)nc2c1`, the MIC with Staphylococcus aureus [3] (ATCC 25923, 24 h) stood at 125 µg/mL (≈ 376 µM); in the experiment on Staphylococcus aureus [4] it was 125 µg/mL (≈ 376 µM); against Bacillus subtilis [5] (ATCC 6633, 24 h) it was 31.2 µg/mL (≈ 94 µM); against Bacillus subtilis [6], 15.6 µg/mL (≈ 47 µM); against Escherichia coli [7] (ATCC 25922, 24 h), 62.5 µg/mL (≈ 188 µM); against Escherichia coli [8], 62.5 µg/mL (≈ 188 µM). Besides, the minimum inhibitory concentration (MIC) in the experiment with Klebsiella pneumoniae [9] turned out to be 125 µg/mL (≈ 376 µM); in the experiment with Klebsiella pneumoniae [10] it was 125 µg/mL (≈ 376 µM); with Pseudomonas aeruginosa (ATCC 25853, 24 h), 62.5 µg/mL (≈ 188 µM); with Candida albicans [1], 125 µg/mL (≈ 376 µM); with Candida albicans [2] it was 62.5 µg/mL (≈ 188 µM).
As to `CCS(=O)(=O)c1ccc2oc(-c3ccccc3Cl)nc2c1`, the minimal inhibitory concentration (MIC) with Staphylococcus aureus [3] (ATCC 25923, 24 h) came to 125 µg/mL (≈ 388 µM); with Staphylococcus aureus [4], 125 µg/mL (≈ 388 µM); in the experiment on Bacillus subtilis [5] (ATCC 6633, 24 h), 15.6 µg/mL (≈ 48.5 µM); in the experiment with Bacillus subtilis [6] it was 31.2 µg/mL (≈ 97.1 µM); in the experiment with Escherichia coli [7] (ATCC 25922, 24 h) it was 62.5 µg/mL (≈ 194 µM); against Escherichia coli [8] it was 125 µg/mL (≈ 388 µM). Also, the minimal inhibitory concentration (MIC) stood at 31.2 µg/mL (≈ 97.1 µM) in the experiment with Klebsiella pneumoniae [9]; 125 µg/mL (≈ 388 µM) against Klebsiella pneumoniae [10]; 62.5 µg/mL (≈ 194 µM) with Pseudomonas aeruginosa (ATCC 25853, 24 h); 31.2 µg/mL (≈ 97.1 µM) in the experiment on Candida albicans [1]; 62.5 µg/mL (≈ 194 µM) in the experiment on Candida albicans [2].

Broadly, the MIC is the smallest concentration in the dilution series that meets the test's criterion for growth inhibition. Low readings indicate inhibition by little substance, high ones a need for much substance.
